Assay results as given in ChEMBL document CHEMBL1201862, “PubChem BioAssay data set” (2004).
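Assay format: 96-well plates, 48-hour exposure. GI50 = concentration required for 50% inhibition of growth.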 The source made the active and inactive calls. Rule as the data show it: active = GI50 up to about 1.1 µM and inactive = higher.

Key:
Test in all cases: NCI anticancer screen, dose series, 48 h
NCI-H23 = system: NCI-H23
HCT-15 = system: HCT-15
EKVX = system: EKVX
IGROV-1 = system: IGROV-1
OVCAR-8 = system: OVCAR-8
SK-MEL-28 = system: SK-MEL-28
UO-31 = system: UO-31
SNB-19 = system: SNB-19
NCI-H522 = system: NCI-H522
K562 = system: K562
MOLT-4 = system: MOLT-4
A549 = system: A549
SF-268 = system: SF-268
MCF7 = system: MCF7
NCI-H226 = system: NCI-H226
HCT-116 = system: HCT-116
MDA-MB-231 = system: MDA-MB-231
DU-145 = system: DU-145
RXF 393 = system: RXF 393
LOX IMVI = system: LOX IMVI

Compound	GI50 (NCI-H23)	GI50 (HCT-15)	GI50 (EKVX)	GI50 (IGROV-1)	GI50 (OVCAR-8)	GI50 (SK-MEL-28)	GI50 (UO-31)	GI50 (SNB-19)	GI50 (NCI-H522)	GI50 (K562)	GI50 (MOLT-4)	GI50 (A549)	GI50 (SF-268)	GI50 (MCF7)	GI50 (NCI-H226)	GI50 (HCT-116)	GI50 (MDA-MB-231)	GI50 (DU-145)	GI50 (RXF 393)	GI50 (LOX IMVI)
COc1ccc(/C=C/C(=O)C(C)(C)C)cc1OC	41.5 µM (inactive)	38.5 µM	> 100 µM (inactive)	> 100 µM (inactive)	> 100 µM (inactive)	74.6 µM (inactive)	> 100 µM (inactive)	> 100 µM (inactive)	34.8 µM (inactive)	36.7 µM (inactive)	59.6 µM (inactive)	> 100 µM (inactive)	78.2 µM (inactive)	–	–	–	–	–	–	–
Cc1cn(C2CC(n3cc(Cn4ccc(=O)[nH]c4=O)nn3)C(CO)O2)c(=O)[nH]c1=O (stereo not drawn)	> 100 µM (inactive)	> 100 µM	–	–	> 100 µM (inactive)	> 100 µM (inactive)	> 100 µM (inactive)	> 100 µM (inactive)	–	–	> 100 µM (inactive)	> 100 µM (inactive)	> 100 µM (inactive)	> 100 µM (inactive)	> 100 µM (inactive)	> 100 µM (inactive)	> 100 µM (inactive)	> 100 µM (inactive)	> 100 µM (inactive)	–
Cc1ccc(/N=N/C(C2=NC(=O)CS2)c2nc3ccccc3[nH]2)cc1 (stereo not drawn)	> 100 µM (inactive)	> 100 µM	> 100 µM (inactive)	> 100 µM (inactive)	> 100 µM (inactive)	> 100 µM (inactive)	> 100 µM (inactive)	> 100 µM (inactive)	> 100 µM (inactive)	> 100 µM (inactive)	20.7 µM (inactive)	> 100 µM (inactive)	38.5 µM (inactive)	–	6.1 µM (inactive)	> 100 µM (inactive)	–	–	–	–
O=C1N=C2N=C(c3ccc(Cl)cc3)N(c3ccc(Cl)cc3)N2Sc2ccccc21	> 100 µM (inactive)	> 100 µM	> 100 µM (inactive)	> 100 µM (inactive)	> 100 µM (inactive)	> 100 µM (inactive)	32.4 µM (inactive)	47.2 µM (inactive)	> 100 µM (inactive)	> 100 µM (inactive)	> 100 µM (inactive)	39.8 µM (inactive)	> 100 µM (inactive)	–	> 100 µM (inactive)	> 100 µM (inactive)	–	–	32.8 µM (inactive)	> 100 µM (inactive)
N#CCCSC(=S)C1CCCC1=N (stereo not drawn)	> 100 µM (inactive)	> 100 µM	> 100 µM (inactive)	> 100 µM (inactive)	> 100 µM (inactive)	> 100 µM (inactive)	> 100 µM (inactive)	> 100 µM (inactive)	> 100 µM (inactive)	> 100 µM (inactive)	> 100 µM (inactive)	> 100 µM (inactive)	> 100 µM (inactive)	> 100 µM (inactive)	> 100 µM (inactive)	> 100 µM (inactive)	> 100 µM (inactive)	> 100 µM (inactive)	42.4 µM (inactive)	–
COc1ccc(C2=C(N)c3cc(OC)ccc3C2=O)cc1	55.7 µM (inactive)	> 100 µM	> 100 µM (inactive)	> 100 µM (inactive)	> 100 µM (inactive)	> 100 µM (inactive)	–	24.5 µM (inactive)	> 100 µM (inactive)	–	> 100 µM (inactive)	> 100 µM (inactive)	47.3 µM (inactive)	> 100 µM (inactive)	> 100 µM (inactive)	> 100 µM (inactive)	> 100 µM (inactive)	> 100 µM (inactive)	–	> 100 µM (inactive)
CN1CCC(C(=O)NNc2ccccc2)CC1	42.4 µM (inactive)	1.61 µM	34.5 µM (inactive)	> 36.6 µM (inactive)	9.73 µM (inactive)	17.1 µM (inactive)	3.16 µM (inactive)	> 100 µM (inactive)	3.27 µM (inactive)	0.931 µM (active)	1.23 µM (inactive)	12.2 µM (inactive)	7.05 µM (inactive)	–	> 100 µM (inactive)	> 43.4 µM (inactive)	–	–	> 100 µM (inactive)	0.923 µM (active)
C#CCCCCC#Cc1ccccc1C(=O)OC	37.4 µM (inactive)	63.8 µM	85.1 µM (inactive)	89.3 µM (inactive)	15.5 µM (inactive)	25.8 µM (inactive)	40.5 µM (inactive)	> 100 µM (inactive)	–	9.93 µM (inactive)	12.7 µM (inactive)	> 100 µM (inactive)	21 µM (inactive)	–	43.5 µM (inactive)	11 µM (inactive)	–	–	21.4 µM (inactive)	14.8 µM (inactive)
CCOC(=O)N1CCN(Cc2cc(=O)n3cc(C)ccc3n2)CC1	> 100 µM (inactive)	> 100 µM	> 100 µM (inactive)	> 100 µM (inactive)	> 100 µM (inactive)	> 100 µM (inactive)	> 100 µM (inactive)	> 100 µM (inactive)	> 100 µM (inactive)	> 100 µM (inactive)	> 100 µM (inactive)	> 100 µM (inactive)	> 100 µM (inactive)	> 100 µM (inactive)	> 100 µM (inactive)	> 100 µM (inactive)	> 100 µM (inactive)	> 100 µM (inactive)	–	> 100 µM (inactive)
